ChEMBL document CHEMBL1123423, “Tranexamic acid derivatives with enhanced absorption” (J Med Chem, 1986)

Legend:
Rattus norvegicus [1] = test: Compound was evaluated for percent tranexamic acid recovered in rat urine within 24 hr after oral administration of 0.1 mmol/kg of body weight per mole of pro drug; assay type: ADME, organism-based; conditions: in vivo
[2] = Half-life in buffer at pH 7.5; assay type: ADME
[3] = Half-life in 90% human heparinized plasma.; assay type: ADME
[4] = Half-life in buffer at pH 1.2; assay type: ADME
Rattus norvegicus [5] = test: Compound was evaluated for percent tranexamic acid recovered in rat urine within 24 hr after oral administration of per moiety tranexamic acid; assay type: ADME, organism-based; conditions: in vivo
[6] = Half-life in phosphate buffer at pH 7.5; assay type: ADME
[7] = Half-life in phosphate buffer at pH 1.2; assay type: ADME
Rattus norvegicus [8] = test: Compound was evaluated for percent tranexamic acid recovered in rat urine within 24 hr after oral administration of 0.1 mmol/kg of body weight.; assay type: ADME, organism-based; conditions: in vivo
Rattus norvegicus [9] = test: Compound was evaluated for percent recovery of tranexamic acid in urine from rat within 24 hr after oral administration of the dose 1 mmol/kg of body weight; assay type: ADME, organism-based; conditions: in vivo
Rattus norvegicus [10] = test: Compound was evaluated for percent recovery of tranexamic acid in urine from rat within 24 hr after oral administration of the dose […] of body weight; assay type: ADME, organism-based; conditions: in vivo

Row | Absorption (Rattus norvegicus [1]) [%] | half-life [2] [h] | half-life [3] [h] | half-life [4] [h] | Absorption (Rattus norvegicus [5]) [%] | Structure (SMILES) | further results
1 | 35 |  |  |  |  | Cl.NCc1ccc(C(=O)OCOC(=O)[C@H]2CC[C@H](CN)CC2)cc1 | 
2 | 59 | 68 | 0.1 | 14 |  | CC(=O)OC(C)OC(=O)[C@H]1CC[C@H](CN)CC1.Cl (stereo partly specified) | 
3 | 54 | 36 | 0.00833 | 18 |  | CC(C)C(=O)OCOC(=O)[C@H]1CC[C@H](CN)CC1.Cl | 
4 | 50 | 90 | 0.025 | 54 |  | CCOC(=O)OC(C)OC(=O)[C@H]1CC[C@H](CN)CC1.Cl (stereo partly specified) | Recovery (Rattus norvegicus [10]): 50%; Recovery (Rattus norvegicus [9]): 62%
5 | 50 | 26 | 0.025 | 31 | 25 | C[C@]1(CN)CC[C@H](C(=O)OCOC(=O)[C@H]2CC[C@H](CN)CC2)CC1.Cl.Cl | Recovery (Rattus norvegicus [10]): 25%; Recovery (Rattus norvegicus [9]): 32%
6 | 28 |  |  |  |  | Cl.NC[C@H]1CC[C@H](C(=O)Oc2ccc(CCC(=O)O)cc2)CC1 [CETRAXATE HYDROCHLORIDE] | 
7 |  |  | 4 |  |  | CCOC(=O)[C@H]1CC[C@H](CN)CC1.Cl | Absorption (Rattus norvegicus [8]): 92%
8 | 36 | 147 | 0.0333 | 164 |  | CC(C)(C)C(=O)OCOC(=O)[C@H]1CC[C@H](CN)CC1.Cl | Recovery (Rattus norvegicus [10]): 36%; Recovery (Rattus norvegicus [9]): 58%
9 | 22 | 10 |  | 2 |  | CC(C)(C)C(=O)NCOC(=O)[C@H]1CC[C@H](CN)CC1.Cl | 
10 | 44 |  |  |  |  | Cl.NC[C@H]1CC[C@H](C(=O)OC2OC(=O)c3ccccc32)CC1 (stereo partly specified) | Recovery (Rattus norvegicus [10]): 44%; Recovery (Rattus norvegicus [9]): 54%; half-life [6]: 5 h

Second part, the compound before the results:

Row | Structure (SMILES) | Absorption (Rattus norvegicus [1]) [%] | half-life [2] [h] | half-life [3] [h] | half-life [4] [h] | Absorption (Rattus norvegicus [5]) [%] | further results
11 | CN(C)C(=O)C(OC(=O)[C@H]1CC[C@H](CN)CC1)OC(=O)[C@H]1CC[C@](C)(CN)CC1.Cl.Cl (stereo partly specified) | 54 | 6.7 |  | 38 | 27 | 
12 | Cc1oc(=O)oc1COC(=O)[C@H]1CC[C@H](CN)CC1.Cl | 67 |  |  |  |  | half-life [6]: 2 h; half-life [7]: 25 h
13 | NC[C@H]1CC[C@H](C(=O)O)CC1 [TRANEXAMIC ACID] |  |  |  |  |  | Absorption (Rattus norvegicus [8]): 22%; Recovery (Rattus norvegicus [9]): 11%
14 | CCN(CC)C(=O)C(OC(=O)[C@H]1CC[C@H](CN)CC1)OC(=O)[C@H]1CC[C@](C)(CN)CC1.Cl.Cl (stereo partly specified) | 34 |  |  |  | 17 | 
15 | C[C@]1(CN)CC[C@H](C(=O)OCc2oc(=O)oc2COC(=O)[C@H]2CC[C@H](CN)CC2)CC1.Cl.Cl | 54 |  |  |  | 27 | 
16 | CC(OC(=O)[C@H]1CC[C@H](CN)CC1)OC(=O)[C@H]1CC[C@](C)(CN)CC1.Cl.Cl (stereo partly specified) | 42 |  |  |  | 21 | 
17 | CCC(OC(=O)[C@H]1CC[C@H](CN)CC1)OC(=O)[C@H]1CC[C@](C)(CN)CC1.Cl.Cl (stereo partly specified) | 26 | 70 | 0.1 | 29 | 13 | 
18 | CC(OC(=O)C(C)C)OC(=O)[C@H]1CC[C@H](CN)CC1.Cl (stereo partly specified) | 71 | 140 |  | 22 |  | 
19 | CC(C)OC(=O)OC(C)OC(=O)[C@H]1CC[C@H](CN)CC1.Cl (stereo partly specified) | 43 | 144 |  | 58 |  | Recovery (Rattus norvegicus [10]): 43%; Recovery (Rattus norvegicus [9]): 86%
20 | CCOC(=O)C(OC(=O)[C@H]1CC[C@H](CN)CC1)OC(=O)[C@H]1CC[C@](C)(CN)CC1.Cl.Cl (stereo partly specified) | 62 | 0.9 |  | 11 | 31 | 
21 | CC(OC(=O)C(C)(C)C)OC(=O)[C@H]1CC[C@H](CN)CC1.Cl (stereo partly specified) | 43 |  |  |  |  | 
